Test [1] has as its target T1, MAPKAPK5 (Homo sapiens, UniProt Q8IW41).
T1 sequence (Q8IW41 1-471 isoform Q8IW41-2): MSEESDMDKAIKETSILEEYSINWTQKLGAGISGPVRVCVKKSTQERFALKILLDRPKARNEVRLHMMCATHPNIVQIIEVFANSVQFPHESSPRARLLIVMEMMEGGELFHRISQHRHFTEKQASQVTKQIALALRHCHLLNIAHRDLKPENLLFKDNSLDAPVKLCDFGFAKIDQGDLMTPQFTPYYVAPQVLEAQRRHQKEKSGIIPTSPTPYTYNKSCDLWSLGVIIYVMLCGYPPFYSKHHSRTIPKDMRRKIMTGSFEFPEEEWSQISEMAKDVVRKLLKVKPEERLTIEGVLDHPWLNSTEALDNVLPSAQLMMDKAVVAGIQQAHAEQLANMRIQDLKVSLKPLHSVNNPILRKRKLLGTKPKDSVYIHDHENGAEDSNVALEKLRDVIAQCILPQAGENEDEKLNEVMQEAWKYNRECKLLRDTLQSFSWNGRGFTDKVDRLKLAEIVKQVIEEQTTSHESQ
The test can be described thus: MAPKAP-K5 FlashPlate kinase assay. The settings on record: 0.6 μM ATP, 30 minutes, room temperature. The test is classed as biochemical. The method, then: MAPKAP-K5 reactions are performed in FlashPlate format using 0.1 or 0.2 μCi 33P-ATP; 0.6 μM ATP; 1 mU MAPKAP-K5; 3 μM MAPKAP-K5 peptide substrate, incubated at room temperature for 30 minutes.
The MAPKAP-K5 kinase reaction is performed in a 384 well polypropylene plate (Matrix Technologies) and then transferred to a streptavidin-coated 384 well flashplate (Perkin-Elmer). To wells containing 2 μL test compound or standard inhibitor, 13 μL Enzyme mix or diluent are added using a Hydra (Robbins Scientific). Reactions are started by addition of 10 μL of [2.5×] substrate cocktail using a Multidrop (Thermo-Labsystems), to give final concentrations in the assay of: • 1 mU MAPKAP-K5 • 3 μM MAPKAP-K5 peptide substrate • 0.6 μM ATP • 0.004 μCi [33P]-γ-ATP/μL • 1× reaction buffer
Plates are incubated at room temperature for 30 minutes. Reactions are terminated by the addition of 25 μL EDTA (50 mM) to each well using a Micro-fill (Biotek). Reactions are transferred to a streptavidin-coated flashplate using a Zymark robotic system. Plates are incubated for 60 minutes at room temperature. All wells are washed 3 times with 100 μl phosphate buffered saline using a Tecan plate washer. Radioactivity is determined by scintillation counting of the flashplate (empty wells) on a Packard TopCount.
Enzyme Mix: • Enzyme • 50 mM Tris Hcl (pH 7.5) • 0.1 mM EGTA • 2 mM DTT • 1 mg/mL BSA
Reaction Buffer: • 50 mM Tris Hcl (pH 7.5) • 0.1 mM EGTA • 10 mM Magnesium acetate • 2 mM DTT

Test [2] deals with MMP13 expression in SW1353 chondrosarcoma cell line. Description: MMP13 assay: IL-1/OSM-driven MMP13 expression in SW1353 cells (MMP13 ELISA). The conditions noted are these: Homo sapiens, IL-1β and OSM, 48 hr. Type of test: cell-based. Here is the method:
The protocol of the MMP13 ELISA is described in section 4.1, then testing of compounds on release of IL-1/OSM-driven MMP13 expression in SW1353 chondrosarcoma cell line is described in section 4.2.
A 384 well format ELISA for measurement of MMP13 was developed. Various primary antibodies were tested, as well as various ELISA protocols. The following protocol is developed and validated to measure MMP13 levels in supernatant of cell cultures in 384 well plates.
Black maxisorb 384 well plates (Nunc 460518) are coated with 35 μl of a buffered solution containing 1.5 μg/mL anti-MMP13 antibody MAB511 (R&D systems). The antibody is diluted in carbonate-bicarbonate coating buffer (1.59 g Na2CO3 (Sigma S-7795) and 2.93 g NaHCO3 (Sigma S-5761) in 1 L MilliQ water, adjusted to pH 9.6). After overnight incubation at 4° C., wells are washed twice with 100 μL PBST (80 g NaCl, 2 g KCl (Sigma), 11.5 g Na2HPO4.7H2O and 2 g KH2PO4 in 10 L milliQ water; pH 7.4+0.05% Tween-20 (Sigma)) and blocked with 100 μL/well blocking buffer (5% non fat dry milk in PBS). After overnight incubation at 4° C., wells are washed twice with 100 μL PBST. The PBST is removed and 35 μL of sample is transferred to the ELISA plates. After 4 hr incubation at RT, plates are washed twice with PBST and incubated for 1 hr at 37° C. with 35 μL/well 1.5 mM APMA solution (a 10 mM APMA stock solution is prepared one day before (35.18 mg APMA (Sigma A-9563) in 10 mL 0.1M NaOH (Merck 1.06469.1000) and stored at 4° C. Before use, the 10 mM APMA stock solution is diluted to 1.5 mM in 1×APMA buffer (10× APMA buffer: 500 mM Tris (Roche 708976), 50 mM CaCl2 (Sigma C-5080), […] ZnCl2 (Sigma Z-0173), 1.5 M NaCl (Calbiochem 567441), 0.5% Brij35 (Sigma 430 AG-6) and adjust to pH 7.0). After activation of MMP13 by APMA, plates are washed again two times with 100 μL PBST/well and 35 μL of substrate solution is added to each well. Substrate solution is prepared as follows: OmniMMP Fluorescent substrate (Biomol P-126) stock solution (2 mM in DMSO, stored at −20° C.) is diluted in 1× OmniMMP buffer (10× OmniMMP buffer: 500 mM Hepes (Sigma H4034), 100 mM CaCl2 (Sigma C5080), 0.5% Brij35 (Sigma 430 AG-6; adjusted to pH 7.0) to a final concentration of 0.01 mM. After an overnight incubation at 37° C., the active MMP13 in the sample has cleaved the substrate and released fluorescence. Readout is performed on the EnVision (Perkin Elmer) using 320 nm excitation/405 nm emission filters.
Human chondrosarcoma cell line SW1353 was acquired from ATCC and grown in DMEM supplemented with 10% heat-inactivated FBS and 1× penicillin/streptomycin (Invitrogen) in a humidified 5% CO2 incubator at 37° C. Aliquots of the cells were frozen and cryopreserved in liquid nitrogen. Starting from a cryopreserved aliquot, cells are further grown by sub-culturing at a 1/5-1/8 ratio twice a week by trypsinisation.
Starting from the compound master stocks (all at 10 mM concentration in 100% DMSO) a 3-fold serial dilution is made in 96-well plates in 100% DMSO. Then, plates are futher diluted 50-fold in M199 medium supplemented with 1% heat-inactivated FBS to obtain an intermediate work stock.
At day 1, SW1353 cells are seeded in 96-well plates (flat bottom, tissue culture treated, Greiner) at a density of 15000 cells/well in 120 μL growth medium. The next day, 15 μL compound out of the intermediate work stock is added. After an incubation period of 60 minutes, which allows the compounds to equilibrate and enter the cells, cells are stimulated with a mixture of IL-1β and OSM, added in a volume of 15 μL to obtain final concentrations of 1 ng/ml IL-1β and 25 ng/ml OSM. For that, stocks of IL-1 (10 μg/ml) and OSM (25 μg/ml) (both PeproTech) were diluted to 10 ng/ml and 250 ng/ml respectively, in M199 medium supplemented with 1% FBS. After incubation for 48 hr, the cell supernatant was harvested and an appropriate dilution was processed in the MMP13 ELISA as described above, delivering raw data (RFU: relative fluorescence units). […]

Test [3] concerns MMP1 expression by activated synovial fibroblasts (RASFs). Description: 'MMP assay': complex trigger-induced MMP1 expression by synovial fibroblasts (MMP1 ELISA). Type of test: cell-based. The conditions noted are these: Homo sapiens, Fibroblast; RASFs, complex trigger, 48 hrs; read-out: MMP1 IC50. The method, then:
A 384-well format ELISA for measurement of MMP1 is developed. Various primary antibodies are tested, as well as various ELISA protocols. The following protocol is developed and validated to measure MMP1 levels in SF supernatant in 384 well plates: white Lumitrac 600 384 well plates (Greiner) are coated with 2 μg/mL anti-MMP1 antibody MAB1346 (Chemicon). The antibody is diluted in buffer 40 (1.21 g Tris base (Sigma), 0.58 g NaCl (Calbiochem) and 5 ml 10% NaN3 (Sigma) in 1 L milliQ water and adjusted to pH 8.5). After overnight incubation at 4° C., plates are washed with PBS (80 g NaCl, 2 g KCl (Sigma), 11.5 g Na2HPO4.7H2O and 2 g KH2PO4 in 10 L milliQ; pH 7.4) and blocked with 100 μL/well Casein buffer (2% Casein (VWR International) in PBS). Next day, casein buffer is removed from ELISA plates and replaced by 50 μL/well EC buffer (4 g casein, 2.13 g Na2HPO4 (Sigma), 2 g bovine albumin (Sigma), 0.69 g NaH2PO4.H2O (Sigma), 0.5 g CHAPS (Roche), 23.3 g NaCl, 4 ml 0,5 M EDTA pH 8 (Invitrogen), 5 ml 10% NaN3 in 1 L milliQ and adjusted to pH 7.0). 0.25 mM DTT (Sigma) is added to the thawed samples plates. After removal of the EC buffer, 20 μL of sample is transferred to the ELISA plates. After overnight incubation at 4° C. plates are washed twice with PBS and once with PBST (PBS with 0.05% Tween-20 (Sigma)) and incubated with 35 μL/well biotinylated anti-MMP1 antibody solution (R&D). This secondary antibody is diluted in buffer C (0.82 g NaH2PO4.H2O, 4.82 g Na2HPO4, 46.6 g NaCl, 20 g bovine albumin and 4 mL 0,5M EDTA pH 8 in 2 L milliQ and adjusted to pH 7.0) at a concentration of 5 μg/mL. After 2 h of incubation at RT, plates are washed as described above and incubated with 50 μL/well streptavidin-HRP conjugate (Biosource). Streptavidin-HRP conjugate is diluted in buffer C at a concentration of 0.25 μg/mL. After 45 min, plates are washed as described above and incubated for 5 min with 50 μL/well BM Chem ELISA Substrate (Roche). Readout is performed on the Luminoscan Ascent Luminometer (Labsystems) with an integration time of 200 msec or with an Envision reader (Perkin Elmer).
The increase of MMP1 expression by SFs upon treatment with cytokines relevant in the field of RA (TNF-α, IL1β and OSM) or a combination thereof is shown in FIG. 2 as white bars. For this experiment, SFs are seeded in 96 well plates, 3,000 cells/well. 24 h later, the medium is changed to M199 medium supplemented with 1% FBS. One day after the medium change, cytokines or combinations thereof are added to the cultures, each cytokine being added to a final concentration of 25 ng/mL. 72 h after cytokine addition, the supernatant is collected and processed in the MMP1 ELISA as described in the protocol given above. In parallel with this experiment, SFs are triggered, using the same protocol, with the supernatant of THP1 cells (2-fold diluted in M199+1% FBS) treated with the same cytokines or combinations of cytokines for 48 h in M199 medium+1% FBS. The induction of the MMP1 expression by SFs triggered with the supernatants of TNF-α-treated THP1 cells is stronger (>4.5 fold induction) as compared to the SFs triggered with recombinant TNF-α alone (3-fold induction) and almost equals the 5-fold induction obtained by a mixture of 3 purified cytokines (TNF-α, IL1βb, OSM). […] As the role of TNF-α in the RA pathogenesis is validated (TNF-α-blockers such as Infliximab and Etanercept show some efficacy in the treatment of RA patients) and the THP-1 cells are representative for monocytes/macrophages present in the joint of RA patients, the TNF-α-based trigger mixture prepared by contacting THP-1 cells with TNF-α will contain factors present in the joints of RA patients and subsequently is relevant to RA. This TNF-α-based complex trigger, further referred to as the ‘complex trigger’, will further be used as basis for the ‘MMP assay’. […]

For orientation: IC50 means the concentration needed to halve the response being measured. As for `CC(C)N1C[C@@H]2C[C@H]1CN2c1ccc(Nc2ncc(-c3coc(C(N)=O)c3)n3ncnc23)cn1` [Compound 7, 4-{8-(6-((1S,4S)-5-isopropyl-2,5-diazabicyclo[2.2.1]heptan-2-yl)pyridin-3-ylamino)-[1,2,4]triazolo[1,5-a]pyrazin-5-yl}-furan-2-carboxamide], the results for the IC50 in test [1] and in test [2] were 0.01 to 100 nM and 1 to 500 nM, respectively. As for `CC(C)N1CC2CCC1CN2c1ccc(Nc2ncc(-c3coc(C(N)=O)c3)n3ccnc23)cc1` (stereo not drawn) [Compound 10, 4-{8-(4-(5-isopropyl-1-2,5-diazabicyclo[2.2.2]octan-2-yl)phenylamino)-imidazo[1,2-a]pyrazin-5-yl}-furan-2-carboxamide], the concentration for half-maximal inhibition (IC50) was 101 to 500 nM in test [1] and over 1000 nM in test [3]. On to `CC(C)N1CC2CCC(C1)N2c1ccc(Nc2ncc(-c3coc(C(N)=O)c3)n3ncnc23)cc1` [Compound 13, 4-{8-(4-(3-isopropyl-3,8-diazabicyclo[3.2.1]octan-8-yl)phenylamino)[1,2,4]-triazolo[1,5-a]pyrazin-5-yl}-furan-2-carboxamide], for which the concentration for half-maximal inhibition (IC50) in test [1] was 0.01 to 100 nM; in test [2] it was over 1000 nM. For `CC(C)N1C2CCC1CN(c1ccc(Nc3ncc(-c4coc(C(N)=O)c4)n4ccnc34)cc1)C2` [Compound 14, 4-{8-(4-(8-isopropyl-3,8-diazabicyclo[3.2.1]octan-3-yl)phenylamino)-imidazo[1,2-a]pyrazin-5-yl}-furan-2-carboxamide], the IC50 in test [1] was 101 to 500 nM; in test [3] it was over 1000 nM. For the compound `CC(C)N1C[C@H]2C[C@@H]1CN2c1ccc(Nc2ncc(-c3coc(C(N)=O)c3)n3ncnc23)cc1` [Compound 27, 4-[8-({4-[(1R,4R)-5-isopropyl-2,5-diazabicyclo[2.2.1]hept-2-yl]phenyl}amino)[1,2,4]triazolo[1,5-a]pyrazin-5-yl]-2-furamide], in test [1], the IC50 fell in the range of 0.01 to 100 nM.

For the origin of these results see patent US8012983B2, “Substituted triazolopyrazines useful for the treatment of degenerative and inflammatory diseases” (Galapagos NV, priority 2008, dated 2011).
